#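 Cultured in 96-well plates, cells were exposed to test compound for 48 hours across five concentrations. GI50 marks 50% less growth. Definition used: TGI = concentration required for complete inhibition of growth.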
# Tested on: SNB-19 CNS
# Experiment: NCI-60 cell line screen, 48 h
Compound,TGI [µM],GI50 [µM]
C[C@H](CCC(=O)O)[C@H]1CC[C@H]2[C@@H]3C(=O)C[C@@H]4C[C@H](O)CC[C@]4(C)[C@H]3C[C@H](O)[C@]12C,> 100,
CC(=O)NC1C(OCc2ccccc2)OC(CO)C(O)C1OCC(=O)N[C@@H](C)C(=O)N[C@H](CCC(=O)NCCCNc1c2ccccc2nc2cccc([N+](=O)[O-])c12)C(N)=O (some centres undefined),0.552,
COc1ccc(-c2nc(SCC(=O)NNC(=S)Nc3ccccc3)[nH]c2-c2ccc(OC)cc2)cc1,43.2,
O=C(O)c1ccccc1CC(Cc1ccc2c(c1)CCC2)C(=O)O (centres undefined),> 100,
Cn1c(SCc2ccc(F)cc2)nnc1C12CC3CC(CC(C3)C1)C2,> 100,
COC(=O)/C=C\C(C#N)(C#N)N=Cc1ccc(C)cc1,43.1,
CC(c1ccccc1)N1CCN(C(C)c2ccccc2)CC1 (centres undefined),> 100,
CCCCCC#CCOC(=O)C(=[N+]=[N-])P(=O)(c1ccccc1)c1ccccc1,> 10,
COc1ccc(C(=O)/C=C/c2ccc(OCCCOc3ccc(/C=C/C(=O)c4ccc(OC)cc4)cc3)cc2)cc1,> 100,
COc1ccc(N2C(=O)CC(=O)N(NC(=O)C(C)Oc3ccccc3C)C2=S)cc1 (centres undefined),> 100,
COc1cc(OC)cc(C(=O)CC(=O)c2cc(OC)cc(OC)c2)c1,> 100,
COc1ccc(C2c3cn[nH]c3CC3CCCCC32)cc1 (centres undefined),43.5,
O=C1OC(C2Cc3ccc4ccccc4c3C2=O)c2ccccc21 (centres undefined),92.6,
C/C(=N\N=C1/C(=O)OC(c2ccccc2)=C1C(=O)c1ccccc1)c1ccc([N+](=O)[O-])cc1,> 100,
O=C(O)[C@H]1CCCN1CP(=O)(O)CN1CCC[C@@H]1C(=O)O,> 100,
O=S(=O)(O)C(CO)c1ccccc1 (centres undefined) (tested in a mixture with another compound),> 100,
O=C1c2ccccc2C(=O)N1n1c(Cc2ccc([N+](=O)[O-])cc2)n[nH]c1=O,> 100,
O=C1CC2(CCC(O)(c3ccc4ccccc4c3)C(C(=O)c3ccc4ccccc4c3)C2)C(=O)c2ccccc2N1 (centres undefined),> 100,
Cc1nc(C)c(N2CCN([N+](=O)[O-])CC2)c(=O)[nH]1,> 100,
Cc1nn(-c2ccccc2)c2c1C(c1cc3ccccc3nc1Cl)NC(=O)N2 (centres undefined),48.1,
COc1ccc(C2OC(c3ccncc3)=NN2C)cc1F (centres undefined),> 100,
Cc1cc(/N=C/c2ccc(N(C)C)cc2)n(-c2ccccc2)n1,> 100,

Compound,TGI [µM],GI50 [µM]
COC(=O)C(Cc1ccc2c(c1)CCC2)Cc1ccc2c(c1)CCC2,> 100,
O=C1NC2c3c(I)sc(I)c3C(O)C2O1 (centres undefined),> 100,
CNc1cc2c(c3ccccc13)C(CCl)CN2C(=O)c1cc2cc(OC)c(OC)c(OC)c2[nH]1 (centres undefined),0.107,
O=C(O)CN1CCN2CCCCCN(CC1)CCN(CC(=O)O)CC2,> 100,
Cc1cccc(C)c1NC(=O)C(Cc1c[nH]c2ccccc12)NC(=O)OCc1ccccc1 (centres undefined),51.6,
S=C1NC2=C(CSC/C2=C\c2cccc(Br)c2)C(c2cccc(Br)c2)N1 (centres undefined),> 100,
CSC1=N/C(=C\c2ccc(C)cc2)C(=O)N1CN1CCCCC1,> 100,
Cc1ccc(C2=CC(=O)OC(C[P+](c3ccccc3)(c3ccccc3)c3ccccc3)(c3ccccc3)O2)cc1 (centres undefined),30.9,
C[n+]1c(/C=C/c2c(O)ccc3ccccc23)ccc2ccccc21,14.8,6.56
O=C(NCP(=O)(Oc1ccccc1)Oc1ccccc1)OCc1ccccc1,> 100,
Cc1c(/C=N\NC(=S)NCCNC(=S)N/N=C\c2c(C)n(C)n(-c3ccccc3)c2=O)c(=O)n(-c2ccccc2)n1C,> 100,
Cc1c(O)nc(-n2[nH]c3c(c2=O)CCCC3)[nH]c1=O,> 100,
C=CCn1c(=O)c(C(=O)Nc2nc(C34CC5CC(CC(C5)C3)C4)cs2)c(O)c2ccccc21,> 100,
CCCNc1ncnc2c1ncn2C,> 100,
C=CCc1cc(-c2nc(=S)[nH][nH]2)ccc1N=NNc1ccc(C(=O)O)cc1,> 100,
O=C(O)CN1CCNCCN(CC(=O)O)CCN(CC(=O)O)CCNCC1,> 100,
CC(NC(=O)Cc1ccccc1)NC(=O)C(C)C(=O)Nc1ccccc1 (centres undefined),75.8,
CCOC(=O)c1c(-c2ccc(O)c(OC)c2)c(C#N)c(=S)n(C2OC(CO)C(O)C(O)C2O)c1-c1ccccc1 (centres undefined),> 100,
C=C1CC(C#N)(C#N)[C@H]2C3CCCC3C[C@@H]12 (some centres undefined) (tested in a mixture with another compound),67.4,
COC(C)(C)C1(O)CC[C@@H](C)CC1=O (some centres undefined),> 100,
Nc1ccc(N=Nc2c(S(=O)(=O)O)cc3ccccc3c2S(=O)(=O)O)cc1,> 100,

# Tested on: UO-31 renal
# Experiment: NCI-60 cell line screen, 48 h
Compound,TGI [µM],GI50 [µM]
CC1=CCC([C@@](C)(O)CCCC(C)(C)N=C=S)CC1 (some centres undefined),26.7,
CCN1CN(c2ccccc2)C2(CCN(CC3COc4ccccc4O3)CC2)C1=O (centres undefined),76.6,
C=C1C(=O)CC2C1CC(=O)/C(C)=C/CCC(C)(O)C2O (centres undefined),17.3,
N[C@@H](Cc1ccccc1)C(=O)N1CCC[C@@H]1P(=O)(Oc1ccccc1)Oc1ccccc1,> 100,
O=c1[nH][nH]c(=O)n1CCCCCCn1c(=O)[nH][nH]c1=O,> 100,
C[C@H](CCC(=O)O)[C@H]1CC[C@H]2[C@@H]3C(=O)C[C@@H]4C[C@H](O)CC[C@]4(C)[C@H]3C[C@H](O)[C@]12C,> 100,
CC(=O)NC1C(OCc2ccccc2)OC(CO)C(O)C1OCC(=O)N[C@@H](C)C(=O)N[C@H](CCC(=O)NCCCNc1c2ccccc2nc2cccc([N+](=O)[O-])c12)C(N)=O (some centres undefined),0.341,
COc1ccc(-c2nc(SCC(=O)NNC(=S)Nc3ccccc3)[nH]c2-c2ccc(OC)cc2)cc1,> 100,
O=C(O)c1ccccc1CC(Cc1ccc2c(c1)CCC2)C(=O)O (centres undefined),> 100,
Cn1c(SCc2ccc(F)cc2)nnc1C12CC3CC(CC(C3)C1)C2,> 100,
COC(=O)/C=C\C(C#N)(C#N)N=Cc1ccc(C)cc1,7.16,
CC(c1ccccc1)N1CCN(C(C)c2ccccc2)CC1 (centres undefined),> 100,
CCCCCC#CCOC(=O)C(=[N+]=[N-])P(=O)(c1ccccc1)c1ccccc1,> 10,
COc1ccc(C(=O)/C=C/c2ccc(OCCCOc3ccc(/C=C/C(=O)c4ccc(OC)cc4)cc3)cc2)cc1,> 100,
CCOc1cc(/C=C2/C(C)=NN(c3cccc(Cl)c3)/C2=N/c2nc3ccccc3s2)ccc1O,52.8,
COc1ccc(N2C(=O)CC(=O)N(NC(=O)C(C)Oc3ccccc3C)C2=S)cc1 (centres undefined),> 100,
COc1cc(OC)cc(C(=O)CC(=O)c2cc(OC)cc(OC)c2)c1,> 100,
COc1ccc(C2c3cn[nH]c3CC3CCCCC32)cc1 (centres undefined),29.9,
O=C1OC(C2Cc3ccc4ccccc4c3C2=O)c2ccccc21 (centres undefined),> 100,
C/C(=N\N=C1/C(=O)OC(c2ccccc2)=C1C(=O)c1ccccc1)c1ccc([N+](=O)[O-])cc1,> 100,
O=C(O)[C@H]1CCCN1CP(=O)(O)CN1CCC[C@@H]1C(=O)O,> 100,
O=S(=O)(O)C(CO)c1ccccc1 (centres undefined) (tested in a mixture with another compound),> 100,
O=C1c2ccccc2C(=O)N1n1c(Cc2ccc([N+](=O)[O-])cc2)n[nH]c1=O,> 100,
O=C1CC2(CCC(O)(c3ccc4ccccc4c3)C(C(=O)c3ccc4ccccc4c3)C2)C(=O)c2ccccc2N1 (centres undefined),> 100,
Cc1nc(C)c(N2CCN([N+](=O)[O-])CC2)c(=O)[nH]1,> 100,

Compound,TGI [µM],GI50 [µM]
Cc1nn(-c2ccccc2)c2c1C(c1cc3ccccc3nc1Cl)NC(=O)N2 (centres undefined),28.2,
COc1ccc(C2OC(c3ccncc3)=NN2C)cc1F (centres undefined),> 100,
Cc1cc(/N=C/c2ccc(N(C)C)cc2)n(-c2ccccc2)n1,> 100,
COC(=O)C(Cc1ccc2c(c1)CCC2)Cc1ccc2c(c1)CCC2,> 100,
O=C1NC2c3c(I)sc(I)c3C(O)C2O1 (centres undefined),> 100,
O=C(O)CN1CCN2CCCCCN(CC1)CCN(CC(=O)O)CC2,> 100,
Cc1cccc(C)c1NC(=O)C(Cc1c[nH]c2ccccc12)NC(=O)OCc1ccccc1 (centres undefined),32.9,
CSC1=N/C(=C\c2ccc(C)cc2)C(=O)N1CN1CCCCC1,> 100,
Cc1ccc(C2=CC(=O)OC(C[P+](c3ccccc3)(c3ccccc3)c3ccccc3)(c3ccccc3)O2)cc1 (centres undefined),30.9,
O=c1oc2cc(O)ccc2c(O)c1C(c1ccccc1)c1c(O)c2ccc(O)cc2oc1=O,> 100,
C[n+]1c(/C=C/c2c(O)ccc3ccccc23)ccc2ccccc21,12,1.68
O=C(NCP(=O)(Oc1ccccc1)Oc1ccccc1)OCc1ccccc1,> 100,
Cc1c(/C=N\NC(=S)NCCNC(=S)N/N=C\c2c(C)n(C)n(-c3ccccc3)c2=O)c(=O)n(-c2ccccc2)n1C,> 100,
CC(C)c1cc2c(c(O)c1O)[C@@]1(C(=O)O)CCCC(C)(C)[C@@H]1CC2,27.4,
Cc1c(O)nc(-n2[nH]c3c(c2=O)CCCC3)[nH]c1=O,> 100,
C=CCn1c(=O)c(C(=O)Nc2nc(C34CC5CC(CC(C5)C3)C4)cs2)c(O)c2ccccc21,> 100,
CCCNc1ncnc2c1ncn2C,> 100,
C=CCc1cc(-c2nc(=S)[nH][nH]2)ccc1N=NNc1ccc(C(=O)O)cc1,> 100,
O=C(O)CN1CCNCCN(CC(=O)O)CCN(CC(=O)O)CCNCC1,> 100,
CC(NC(=O)Cc1ccccc1)NC(=O)C(C)C(=O)Nc1ccccc1 (centres undefined),> 100,
CCOC(=O)c1c(-c2ccc(O)c(OC)c2)c(C#N)c(=S)n(C2OC(CO)C(O)C(O)C2O)c1-c1ccccc1 (centres undefined),> 100,
C=C1CC(C#N)(C#N)[C@H]2C3CCCC3C[C@@H]12 (some centres undefined) (tested in a mixture with another compound),35.3,
COC(C)(C)C1(O)CC[C@@H](C)CC1=O (some centres undefined),> 100,
Nc1ccc(N=Nc2c(S(=O)(=O)O)cc3ccccc3c2S(=O)(=O)O)cc1,> 100,

# From PubChem BioAssay (NCI)
